# Where “and” joins values, the source holds several entries; their conditions need not be identical. Equal entries are not always repeated. Entries after “also recorded” stand apart in the source; their conditions may differ. Where two headings read alike, the source gives them in different places.
# Key:
# [1] = test system: Ehrlich ascites carcinoma (EAC); assay: Anti-tumour effect of DXR complexes on Ehrlich ascites carcinoma growth in ICR mice (i.v. days 2, 4, 6; tumour cells counted day 8); type: in vivo; settings: DXR 3.5 mg/kg; C4 22.5 mg/kg or C5 12 mg/kg
# Procedure: Random-bred albino mice of line ICR, male and female, from own rearing were used in the study. The room for animal housing was provided with filtered air at 15 changes per hour, a temperature of 19-21° C., relative humidity of 50-60% and regulated light day of 12 hours with change of light and darkness at 6 a.m. and 6 p.m. The mice were kept in transparent polycarbonate cages with a floor area of 600 cm^2 containing softwood sawdust bedding. […] The mice aged 2-2.5 months and having a weight of 19-22 g were randomly distributed in the control and test groups, standardised by mean weights. The control and test groups included 10 and 7 animals correspondingly. The mice of each group were identified by specific ear marks. The cages with animals of each group were identified by cage cards marked with the study date, group number, number and sex of the animals.
# The strain of EAC was propagated in ICR mice by intraperitoneal inoculation of 0.2 ml native ascites fluid or 0.5 ml ascites fluid diluted by saline to 1:1 from one or two animals with intraperitoneally growing EAC on day 7. Ascites fluids contained more 98% of viable tumour cells according to trypan blue exclusion test. For the each study the suspension of EAC cells in sterile saline in concentration of 10^7 viable tumour cells/ml was prepared in aseptic conditions from ascites fluid of mouse bearing of EAC on day 7.
# The mice of each control and experimental groups were inoculated by intraperitoneal injection of 2×10^6 EAC cells in volume of 0.2 ml at day 0. Intravenous injections for the study were carried out in lateral tail vein of mice once every other day, three times (day 2, 4 and 6) following inoculation of EAC cells. The mice of control group were injected by vehicle in volume of 2.5 ml/kg of body weight (50 μl to mouse of 20 g body weight) intravenously (negative control).
# The mice were killed by cervical dislocation two days later after the final treatment with the test complexes on day 8. Ascites fluids were removed, collected, their volumes were recorded, and abdominal cavities were washed by saline 6-7 times and both fluids were pooled. After centrifugation at 1000 r.p.m. for 10 min volumes of tumour cell pellet were also recorded. Number of viable tumour cells was counted by hemocetometer. Means and standard errors for each groups were calculated. Comparison of tumour cell number in control and test groups was carried out using Student's t-test. The influence of tested preparations on EAC growth inhibition was evaluated by the following formula: [formula]
# [2] = test system: EAC cells; assay: Antitumor effect of compound 1 and doxorubicin on EAC in C3H mice (Example 20); type: in vivo; settings: for Ascites volume / Tumor cell quantity / EAC growth inhibition, % to control: days 2, 4, 6, day 9
# Procedure: 20-22 g males of C3H mice were used. Control and experimental groups included 7 animals, which were inoculated 5×10^6 EAC cells i.p. in volume 0.2 ml at day 0. […] One group of mice was untreated control. Results of experiment were accounted on ninth day. Mice were killed by cervical dislocation. Ascitic fluids were removed, collected, their volumes were measured, and abdominal cavities were washed by saline solution 6-7 times. Thus obtained fluids were pooled. The number of viable tumor cells was counted by hemocytometer, using trypan blue exclusion test. The mean and the standard mean error was calculated for each group of mice. Comparison of tumor cell number in control and experimental groups was carried out using Student t-test. Influence of tested preparation on EAC growth inhibition was evaluated by: [formula]
# [3] = test system: EAC; assay: Effect of compound 1 with AFP on growth of EAC in C3H mice (Example 21); type: in vivo; settings: compound 1 1 mg/kg (20 μg/mouse) i.v. ×3, AFP none
# Procedure: The influence of compound with different amount of AFP on the growth of EAC was studied. The experiments were carried out on inbred C3H mice having initial weight of 20-23 g. The used tumor cell strain was supported by i.p. passages to mice of the same line. At the beginning of the research (day 0) four groups, each of which contained 7 mice, were formed. All of the animals were inoculated by tumour cells in saline solution i.p. (5·10^6 cells in 0,2 ml per a mouse).
# The first group of animals was untreated (negative control). The mice were injected by NMS. […] The animals of third and fourth groups were injected the same dose of compound 1, the protein being added to NMS (2,5 and 5 μg/mouse, accordingly). On the ninth day after inoculation by EAC cells the mice were killed and ascitic fluids were collected and estimated quantitatively. Tumor cells suspensions were prepared and aliquotes were mixed with equal volume of 0,1% trypan blue solution. The quantity of tumor cells were counted with hemocytometer.
# Results of the experiments were evaluated by means of variation statistics method using Student t-test. The values of inhibiting effects of the preparations were represented as percentage in comparison with control.
# [4] = test system: EAC; settings: for EAC growth inhibition / number of tumour cells: days 2, 4, 6, day 9
# [5] = dose 20 μg/mouse i.v. (doxorubicin equivalent, 1 mg/kg)
# [6] = dose 20 μg/mouse i.v. (doxorubicin equivalent, 1 mg/kg), 1 mg/kg
# [7] = dose 50 μg/mouse i.v. (doxorubicin equivalent, 2.5 mg/kg)
# [8] = dose 100 μg/mouse i.v. (doxorubicin equivalent, 5 mg/kg)
# [9] = doses corresponding to 1 and 2.5 mg/kg of doxorubicin
# [10] = doxorubicin dose 1 mg/kg i.v. in NMS
# [11] = doxorubicin dose 2.5 mg/kg i.v. in NMS
SMILES,influence of the compound on the anti-tumour action of DXR in the DXR/compound complex [1],"Ascites volume [2, 5]","Tumor cell quantity [2, 5]","EAC growth inhibition, % to control [2, 6]","Ascites volume [2, 7]","Tumor cell quantity [2, 7]","Ascites volume [2, 8]","Tumor cell quantity [2, 8]","EAC growth inhibition [4, 10]","number of tumour cells [4, 10]","number of tumour cells [4, 11]",further results
"CC1=C(/C=C/C(C)=C/C=C/C(C)=C/C(=O)N[C@@H](Cc2ccc(OP(=O)(O)O)cc2)C(=O)O)C(C)(C)CCC1 (stereo in doubt) [C4, N-(all-trans-retinoyl)-o-phospho-L-tyrosine]",cancelled the anti-tumour action of DXR,,,,,,,,,,,
"CCCCC/C=C\C/C=C\C/C=C\C/C=C\CCCC(=O)NCCOP(=O)(O)O [C5, N-arachidonoyl-o-phospho-2-aminoethanol]",canceled the anti-tumour action of DXR; also recorded: cancelled the anti-tumour action of DXR,,,,,,,,,,,
"COc1cccc2c1C(=O)c1c(O)c3c(c(O)c1C2=O)CC(O)(C(=O)CO)CC3OC1CC(NC(=O)/C=C(C)/C=C/C=C(C)/C=C/C2=C(C)CCCC2(C)C)C(O)C(C)O1 (stereo not drawn) [Compound 1, N-(all-trans-retinoyl)-doxorubicin]",,3.50 ± 1.30 mL,640.0 ± 78.04 × 10^6,47.3%,2.10 ± 1.70 mL,535.0 ± 167.90 × 10^6,3.30 ± 1.20 mL,571.4 ± 66.96 × 10^6,,,,"EAC growth inhibition, % to control ([2]; dose 20 μg/mouse i.v. (doxorubicin equivalent, 1 mg/kg), listed as compound 1, 1 mg/kg): 47%; EAC growth inhibition, % to control ([2]; dose 50 μg/mouse i.v. (doxorubicin equivalent, 2.5 mg/kg), 2.5 mg/kg): 55.9%; EAC growth inhibition, % to control ([2]; dose 50 μg/mouse i.v. (doxorubicin equivalent, 2.5 mg/kg), listed as compound 1, 2.5 mg/kg): 57% and 56%; EAC growth inhibition, % to control ([2]; dose 100 μg/mouse i.v. (doxorubicin equivalent, 5 mg/kg), 5 mg/kg): 52.9%; EAC growth inhibition, % to control ([2]; dose 100 μg/mouse i.v. (doxorubicin equivalent, 5 mg/kg), listed as compound 1, 5 mg/kg): 53%; anti-tumour effect towards EAC [2, 9]: exerts high anti-tumour effect towards EAC; Ascites volume [3]: 2.0 ± 0.25 mL; Tumor cell quantity [3]: 1185.7 ± 266.2 × 10^6; EAC growth inhibition, % to control ([3]; 1 mg/kg): 45.0%; EAC growth inhibition, % to control ([3]; listed as compound 1, 1 mg/kg): 45%"
"COc1cccc2c1C(=O)c1c(O)c3c(c(O)c1C2=O)C[C@@](O)(C(=O)CO)C[C@@H]3O[C@H]1C[C@H](N)[C@H](O)[C@H](C)O1 [DXR, doxorubicin, reference compound]",,2.85 ± 1.35 mL,765.8 ± 127.52 × 10^6,36.9%,1.85 ± 1.10 mL,662.1 ± 99.17 × 10^6,0.80 ± 0.60 mL,350.0 ± 108.21 × 10^6,34.8%,635.9±122.78 ×10^6,537.4±92.89 ×10^6,"EAC growth inhibition, % to control [2, 8]: 71.2%"
"CC/C=C\C/C=C\C/C=C\C/C=C\C/C=C\C/C=C\CCC(=O)N[C@H](C(=O)O)[C@@H](C)OP(=O)(O)O [C11, N-docosahexaenoyl-o-phospho-L-threonine]",canceled the anti-tumour action of DXR,,,,,,,,,,,
"COc1cccc2c1C(=O)c1c(O)c3c(c(O)c1C2=O)C[C@@](O)(C(=O)CO)C[C@@H]3O[C@H]1C[C@H](NC(=O)\C=C(C)/C=C/C=C(C)/C=C/C2=C(C)CCCC2(C)C)[C@H](O)[C@H](C)O1 (relative stereo) [Compound 2, N-(13-cis-retinoyl)-doxorubicin]",,,,,,,,,45.3%,533.5±94.23 ×10^6,405.7±120.62 ×10^6,"antitumor effect in respect to EAC [4, 9]: exceeding the effect of doxorubicin alone; EAC growth inhibition [4, 11]: 58.4%"
